Source: US20220409743A1, “VIRUS-MIMETIC NANOPARTICLES” (UNIVERSITÄT REGENSBURG, priority 2019, published 2022)

Assays:
sGC = biological target: T1, sGC (Rattus norvegicus, UniProt P20595); experiment: Western Blot of sGC levels in mesangial cells; assay type: cell-based; details: 24 h incubation; free CCG 2 μM, NPs 0.2 μM CCG
T1 construct: endogenous in cells; host or cells: mesangial cells
T1 sequence (P20595 1-619): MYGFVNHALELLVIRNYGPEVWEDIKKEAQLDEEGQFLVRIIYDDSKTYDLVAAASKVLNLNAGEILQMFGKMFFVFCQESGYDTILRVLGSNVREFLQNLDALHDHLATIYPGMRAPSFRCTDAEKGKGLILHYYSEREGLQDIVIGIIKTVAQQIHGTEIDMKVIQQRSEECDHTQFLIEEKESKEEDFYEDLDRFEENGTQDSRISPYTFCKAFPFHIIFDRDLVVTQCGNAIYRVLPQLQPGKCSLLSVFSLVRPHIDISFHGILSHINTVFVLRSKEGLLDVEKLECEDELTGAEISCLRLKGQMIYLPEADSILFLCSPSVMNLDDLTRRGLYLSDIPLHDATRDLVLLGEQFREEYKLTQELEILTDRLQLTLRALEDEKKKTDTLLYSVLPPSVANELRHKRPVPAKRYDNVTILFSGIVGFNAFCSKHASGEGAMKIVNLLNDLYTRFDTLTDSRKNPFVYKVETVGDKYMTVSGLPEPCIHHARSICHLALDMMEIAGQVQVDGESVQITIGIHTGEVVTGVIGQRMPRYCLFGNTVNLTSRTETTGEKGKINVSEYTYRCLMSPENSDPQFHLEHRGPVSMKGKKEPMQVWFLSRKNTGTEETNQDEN
T1 sequence (P19686 1-690 partner): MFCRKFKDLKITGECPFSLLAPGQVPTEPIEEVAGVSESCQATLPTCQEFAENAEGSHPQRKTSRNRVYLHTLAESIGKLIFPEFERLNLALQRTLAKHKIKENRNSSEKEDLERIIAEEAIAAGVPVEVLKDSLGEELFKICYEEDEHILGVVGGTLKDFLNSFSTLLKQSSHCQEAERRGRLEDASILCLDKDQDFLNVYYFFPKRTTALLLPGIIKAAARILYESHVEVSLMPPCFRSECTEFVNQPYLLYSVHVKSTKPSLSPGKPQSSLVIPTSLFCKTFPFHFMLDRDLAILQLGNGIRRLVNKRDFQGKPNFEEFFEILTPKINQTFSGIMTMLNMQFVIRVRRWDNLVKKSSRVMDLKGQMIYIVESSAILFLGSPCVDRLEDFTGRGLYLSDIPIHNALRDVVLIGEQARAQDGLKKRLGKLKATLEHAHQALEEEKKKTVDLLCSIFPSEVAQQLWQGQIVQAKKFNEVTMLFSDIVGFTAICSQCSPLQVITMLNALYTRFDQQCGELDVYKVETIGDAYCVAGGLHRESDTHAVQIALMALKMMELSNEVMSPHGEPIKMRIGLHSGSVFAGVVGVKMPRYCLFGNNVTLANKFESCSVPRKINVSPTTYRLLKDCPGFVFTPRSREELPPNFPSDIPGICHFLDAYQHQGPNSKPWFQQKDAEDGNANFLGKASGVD
Method: (§1) In the inventors' experimental set-up, CCG was initially encapsulated in hetero-multivalent EXPcRGD NPs. Resulting NPs carried approximately 500-700 CCG molecules per NP (data not shown). In all following experiments, the administration of free cinaciguat at a concentration of 2 μM was compared to CCG-loaded EXPcRGD NPs at a concentration of approximately 0.5 nM (equaling 0.2 μM of CCG) and drug-free EXPcRGD control NPs (FIG. 30). […] CCG-carrying NPs however carried only 10% of respective CCG amount to test a possible drug delivery effect.
To assess the effect of CCG-loaded EXPcRGD NPs on target sGC, mesangial cells were initially incubated for 24 h and protein quantity was assessed using Western Blot analysis.

PGK1-α = experiment: Western Blot of VASP phosphorylation (PGK1-α activity); assay type: cell-based; details: free CCG 2 μM, NPs 0.2 μM CCG
Method: To assess PGK1-αactivity, phosphorylation of its substrate vasodilator-stimulated phosphoprotein (VASP) was assessed. […] (n=3; ****P<0.0001; ***P<0.001; **P<0.01; *P<0.05).
as §1

mesangial cells = experiment: Proliferation assay of TGF-β stimulated mesangial cells; assay type: cell-based; details: 4 h pre-incubation, 10 ng mL^−1 TGF-β 48 h
Method: (§2) Finally, the anti-fibrotic and anti-proliferative potential of a NP-assisted CCG delivery was analyzed. In that regard, mesangial cells were initially incubated for 4 h either with free CCG, CCG-loaded EXPcRGD NPs or control NPs without encapsulated drug. After 4 h, 10 ng mL^−1 of transforming growth factor β (TGF-β) were added for 48 h to induce a fibrotic and hyperproliferative remodeling.

α-SMA = experiment: Western Blot / LSM of fibrosis marker α-SMA after TGF-β; assay type: cell-based; details: 4 h pre-incubation, 10 ng mL^−1 TGF-β 48 h
Method: as §2

Collagen I = experiment: Western Blot of fibrosis marker Collagen I after TGF-β; assay type: cell-based; details: 4 h pre-incubation, 10 ng mL^−1 TGF-β 48 h
Method: as §2

AT1R = biological target: T2, AT1R (Rattus norvegicus, UniProt P25095); experiment: Intracellular calcium measurement (Fura-2): ligand affinity and particle avidity for the AT1R; details: read-out: IC50, ligand affinity for the AT1R; free ligand; rMCs incubated 30 min prior to stimulation with Ang-II
T2 sequence (P25095 1-359): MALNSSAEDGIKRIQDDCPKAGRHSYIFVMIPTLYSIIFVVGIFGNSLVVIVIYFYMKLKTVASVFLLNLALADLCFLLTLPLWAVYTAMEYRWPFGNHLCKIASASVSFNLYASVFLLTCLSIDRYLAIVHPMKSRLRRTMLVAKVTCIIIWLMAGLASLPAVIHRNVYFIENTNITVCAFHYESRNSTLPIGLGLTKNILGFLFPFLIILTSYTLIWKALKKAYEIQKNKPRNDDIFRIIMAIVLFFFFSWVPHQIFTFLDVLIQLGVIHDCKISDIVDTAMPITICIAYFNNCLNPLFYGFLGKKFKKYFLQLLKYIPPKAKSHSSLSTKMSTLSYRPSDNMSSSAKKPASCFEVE
Method: In order to assess the AT1R interaction of the different NP formulations a ratiometric Fura-2 Ca^2+ chelator method was used as previously described [1, 3] using AT1R positive rMCs. For that purpose, rMCs were seeded in T-150 flasks (Corning) and incubated until confluent. […] Cells were incubated for 1 hour, light protected, with gentle agitation (50 rpm). Afterwards, the cell suspension was washed with DPBS by centrifugation (2×, 200 g, 5 min, RT), and resuspended in Leibovitz medium supplemented with 2.5 mM Probenecid at a count of 2 million cells/mL. […] To determine the kinetics of the AT1R interaction (FIG. 3D) the same procedure was used, but the samples were incubated for different time periods (from 5 to 320min) with the cells. The maximal and minimal signal ratio, was determined by stimulating the cells with 0.1% Triton-X 100 or 0.1% Triton-X 100 with 45 mM ethylene glycol-bis(2-aminoethylether)-N,N,N′,N′-tetraacetic acid (EGTA), respectively.

| Molecule | sGC levels (sGC) | P-VASP/VASP ratio (PGK1-α) | Effect on TGF-β induced hyperproliferation (mesangial cells) | α-SMA levels compared to the TGF-β control (α-SMA) | Collagen I levels compared to the TGF-β control (Collagen I) | IC50 (AT1R) [nM] |
| --- | --- | --- | --- | --- | --- | --- |
| O=C(O)CCCCN(CCc1ccccc1OCc1ccc(CCc2ccccc2)cc1)Cc1ccc(C(=O)O)cc1 [CCG, Cinaciguat] | substantial increase in sGC levels | considerable increase in P-VASP/VASP ratio | considerably decreased this effect | drastic reduction | drastic reduction | – |
| angiotensin-I (DRVYIHPFHL; Angiotensin-1; UniProt P01019 25-34, looked up) [Ang-I] | – | – | – | – | – | 900 ± 600 |
